Each structure is given as a SMILES string.

The subject of the assay is MV4-11 cells. Briefly: Cell proliferation assay MV4;11 (CellTiter-Glo, 72 hours). The assay is classed as cell-based. Particulars: Homo sapiens; MV4;11 leukemia cell line, 72 hours; read-out: MV4; 11 IC50. The method, boiled down:
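Luminescent CellTiter-Glo readout after 72 h culture, 37 °C, 5% CO2, expressed relative to vehicle-treated wells, with maximal inhibition taken at the highest dose. MLL-rearranged MV4-11 leukemia cells; final compound range 0.632 to 2000 nM in eight steps.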

Turning to `CCN(C(=O)c1cc(F)ccc1Oc1cnc(C)nc1N1CC2(CCN(C[C@@H]3CC[C@@H](NS(=O)(=O)CC)CO3)CC2)C1)C(C)C` [Example 216, N-Ethyl-2-((4-(7-(((2S,5R)-5-(ethylsulfonamido)tetrahydro-2H-pyran-2-yl)methyl)-2,7-diazaspiro[3.5]nonan-2-yl)-2-methylpyrimidin-5-yl)oxy)-5-fluoro-N-isopropylbenzamide], the IC50 is 100 to 1000 nM.

For `CCS(=O)(=O)N[C@@H]1CC[C@@H](CN2CCC3(CC2)CN(c2ncncc2Oc2ccc(F)cc2C(=O)N2[C@H](C)COC[C@H]2C)C3)OC1` [Example 29, N-((3R,6S)-6-((2-(5-(2-((3R,5R)-3,5-Dimethylmorpholine-4-carbonyl)-4-fluorophenoxy)pyrimidin-4-yl)-2,7-diazaspiro[3.5]nonan-7-yl)methyl)tetrahydro-2H-pyran-3-yl)ethanesulfonamide], the IC50 is < 100 nM.

For `CCN(C(=O)c1cc(F)ccc1Oc1cncnc1N1CC2(CCN(C[C@@H]3CC[C@@H](NC(=O)OC(C)(C)C)CO3)CC2)C1)C(C)C` [Example 11, tert-Butyl ((3R,6S)-6-((2-(5-(2-(ethyl(isopropyl)carbamoyl)-4-fluorophenoxy)pyrimidin-4-yl)-2,7-diazaspiro[3.5]nonan-7-yl)methyl)tetrahydro-2H-pyran-3-yl)carbamate], the IC50 was < 100 nM.

For the molecule `CCNS(=O)(=O)N[C@@H]1CC[C@@H](CN2CCC3(CC2)CN(c2ncncc2Oc2ccc(F)cc2C(=O)N2[C@H](C)COC[C@H]2C)C3)OC1` [Example 125, {[(3R,6S)-6-{[2-(5-{2-[(3R,5R)-3,5-Dimethylmorpholine-4-carbonyl]-4-fluorophenoxy}pyrimidin-4-yl)-2,7-diazaspiro[3.5]nonan-7-yl]methyl}oxan-3-yl]sulfamoyl}(ethyl)amine], the IC50 was < 100 nM.

Turning to `CCN(C(=O)c1cc(F)ccc1Oc1cncnc1N1CC2(CCN(C[C@@H]3CC[C@@H](NS(=O)(=O)c4ccc(C)cc4)CO3)CC2)C1)C(C)C` [Example 55, N-Ethyl-5-fluoro-N-isopropyl-2-((4-(7-(((2S,5R)-5-((4-methylphenyl)sulfonamido)tetrahydro-2H-pyran-2-yl)methyl)-2,7-diazaspiro[3.5]nonan-2-yl)pyrimidin-5-yl)oxy)benzamide], the IC50 is < 100 nM.

Take `CCS(=O)(=O)N[C@@H]1CC[C@@H](CN2CCC3(CC2)CN(c2ncncc2Oc2ccc(F)cc2C(=O)N(C(C)C)[C@@H]2CC[C@@H]2O)C3)OC1` [Example 258, 2-((4-(7-(((2S,5R)-5-(Ethylsulfonamido)tetrahydro-2H-pyran-2-yl)methyl)-2,7-diazaspiro[3.5]nonan-2-yl)pyrimidin-5-yl)oxy)-5-fluoro-N-((1R,2S)-2-hydroxycyclobutyl)-N-isopropylbenzamide]: the IC50 is < 100 nM.

As to `CCN(C(=O)c1cc(F)ccc1Oc1cncnc1N1CC2(CCN(C[C@@H]3CC[C@@H](NS(=O)(=O)c4cccc(OC)c4)CO3)CC2)C1)C(C)C` [Example 66, N-Ethyl-5-fluoro-N-isopropyl-2-((4-(7-(((2S,5R)-5-((3-methoxyphenyl)sulfonamido)tetrahydro-2H-pyran-2-yl)methyl)-2,7-diazaspiro[3.5]nonan-2-yl)pyrimidin-5-yl)oxy)benzamide], the IC50 was < 100 nM.

For `CC(C)N(C(=O)c1cc(F)ccc1Oc1cncnc1N1CC2(CCN(C[C@@H]3CC[C@@H](NS(=O)(=O)N(C)C)CO3)CC2)C1)C1COC1` [Example 249, 2-((4-(7-(((2S,5R)-5-((N,N-Dimethylsulfamoyl)amino)tetrahydro-2H-pyran-2-yl)methyl)-2,7-diazaspiro[3.5]nonan-2-yl)pyrimidin-5-yl)oxy)-5-fluoro-N-isopropyl-N-(oxetan-3-yl)benzamide], the IC50 was < 100 nM.

For the molecule `CC(C)N(C(=O)c1cc(F)ccc1Oc1cncnc1N1CC2(CCN(C[C@@H]3CC[C@@H](NS(=O)(=O)C(C)C)CO3)CC2)C1)C(C)C` [Example 14, 5-Fluoro-N,N-diisopropyl-2-((4-(7-(((2S,5R)-5-((1-methylethyl)sulfonamido)tetrahydro-2H-pyran-2-yl)methyl)-2,7-diazaspiro[3.5]nonan-2-yl)pyrimidin-5-yl)oxy)benzamide], the IC50 was < 100 nM.

`CCN(C(=O)c1cc(F)ccc1Oc1cncnc1N1CC2(CCN(C[C@@H]3CC[C@@H](NS(=O)(=O)C4CC4)CO3)CC2)C1)C(C)C` [Example 4, 2-((4-(7-(((2S,5R)-5-(Cyclopropanesulfonamido)tetrahydro-2H-pyran-2-yl)methyl)-2,7-diazaspiro[3.5]nonan-2-yl)pyrimidin-5-yl)oxy)-N-ethyl-5-fluoro-N-isopropylbenzamide]: the IC50 was < 100 nM.

As for `CC(C)N(CC(F)F)C(=O)c1cc(F)ccc1Oc1cncnc1N1CC2(CCN(C[C@@H]3CC[C@@H](NS(=O)(=O)N(C)C)CO3)CC2)C1` [Example 95, N-(2,2-Difluoroethyl)-2-((4-(7-(((2S,5R)-5-((N,N-dimethylsulfamoyl)amino)tetrahydro-2H-pyran-2-yl)methyl)-2,7-diazaspiro[3.5]nonan-2-yl)pyrimidin-5-yl)oxy)-5-fluoro-N-isopropylbenzamide], the IC50 is < 100 nM.

For the molecule `C[C@@H]1COC[C@@H](C)N1C(=O)c1cc(F)ccc1Oc1cncnc1N1CC2(CCN(C[C@@H]3CC[C@@H](NS(=O)(=O)c4cnn(C)c4)CO3)CC2)C1` [Example 126, N-((3R,6S)-6-((2-(5-(2-((3R,5R)-3,5-Dimethylmorpholine-4-carbonyl)-4-fluorophenoxy)pyrimidin-4-yl)-2,7-diazaspiro[3.5]nonan-7-yl)methyl)tetrahydro-2H-pyran-3-yl)-1-methyl-1H-pyrazole-4-sulfonamide], the IC50 was < 100 nM.

Consider `CC(C)N(C(=O)c1cc(F)ccc1Oc1cncnc1N1CC2(CCN(C[C@@H]3CC[C@@H](NS(=O)(=O)N4CCC4)CO3)CC2)C1)C1COC1` [Example 248, 2-((4-(7-(((2S,5R)-5-(Azetidine-1-sulfonamido)tetrahydro-2H-pyran-2-yl)methyl)-2,7-diazaspiro[3.5]nonan-2-yl)pyrimidin-5-yl)oxy)-5-fluoro-N-isopropyl-N-(oxetan-3-yl)benzamide], for which the IC50 is < 100 nM.

`CCN(C(=O)c1cc(F)ccc1Oc1cncnc1N1CC2(CCN(C[C@@H]3CC[C@@H](NS(=O)(=O)N(C)CC)CO3)CC2)C1)C(C)C` [Example 140, N-Ethyl-2-((4-(7-(((2S,5R)-5-((N-ethyl-N-methylsulfamoyl)amino)tetrahydro-2H-pyran-2-yl)methyl)-2,7-diazaspiro[3.5]nonan-2-yl)pyrimidin-5-yl)oxy)-5-fluoro-N-isopropylbenzamide]: the IC50 is < 100 nM.

As for `CC(C)N(C(=O)c1cc(F)ccc1Oc1cncnc1N1CC2(CCN(C[C@@H]3CC[C@@H](NS(=O)(=O)C4COC4)CO3)CC2)C1)C1CC1` [Example 22, N-Cyclopropyl-5-fluoro-N-isopropyl-2-((4-(7-(((2S,5R)-5-(oxetane-3-sulfonamido)tetrahydro-2H-pyran-2-yl)methyl)-2,7-diazaspiro[3.5]nonan-2-yl)pyrimidin-5-yl)oxy)benzamide], the IC50 lay within 100 to 1000 nM.

Consider `CCN(C(=O)c1cc(F)ccc1Oc1cncnc1N1CC2(CCN(C[C@@H]3CC[C@@H](NC(=O)Nc4ccccc4)CO3)CC2)C1)C(C)C` [Example 215, N-Ethyl-5-fluoro-N-isopropyl-2-((4-(7-(((2S,5R)-5-(3-phenylureido)tetrahydro-2H-pyran-2-yl)methyl)-2,7-diazaspiro[3.5]nonan-2-yl)pyrimidin-5-yl)oxy)benzamide], for which the IC50 lay within 100 to 1000 nM.

For `CC(C)N(CCC#N)C(=O)c1cc(F)ccc1Oc1cncnc1N1CC2(CCN(C[C@@H]3CC[C@@H](NS(=O)(=O)c4ccccc4)CO3)CC2)C1` [Example 136, N-(2-Cyanoethyl)-5-fluoro-N-isopropyl-2-((4-(7-(((2S,5R)-5-(phenylsulfonamido)tetrahydro-2H-pyran-2-yl)methyl)-2,7-diazaspiro[3.5]nonan-2-yl)pyrimidin-5-yl)oxy)benzamide], the IC50 was < 100 nM.

In the case of `C[C@@H]1COC[C@H](C)N1C(=O)c1cc(F)ccc1Oc1cncnc1N1CC2(CCN(C[C@@H]3CC[C@@H](NS(=O)(=O)NC4CC4)CO3)CC2)C1` [Example 163, N-[(3R,6S)-6-{[2-(5-{2-[(3R,5S)-3,5-Dimethylmorpholine-4-carbonyl]-4-fluorophenoxy}pyrimidin-4-yl)-2,7-diazaspiro[3.5]nonan-7-yl]methyl}oxan-3-yl](cyclopropylamino)sulfonamide], the IC50 is < 100 nM.

Regarding `CCN(C(=O)c1cc(F)ccc1Oc1cncnc1N1CC2(CCN(C[C@@H]3CC[C@@H](NS(=O)(=O)NC)CO3)CC2)C1)C(C)C` [Example 76, N-Ethyl-5-fluoro-N-isopropyl-2-((4-(7-(((2S,5R)-5-((N-methylsulfamoyl)amino)tetrahydro-2H-pyran-2-yl)methyl)-2,7-diazaspiro[3.5]nonan-2-yl)pyrimidin-5-yl)oxy)benzamide], the IC50 is < 100 nM.

Turning to `C[C@@H]1COC[C@H](C)N1C(=O)c1cc(F)ccc1Oc1cncnc1N1CC2(CCN(C[C@@H]3CC[C@@H](NS(=O)(=O)NCC(F)(F)F)CO3)CC2)C1` [Example 162, {[(3R,6S)-6-{[2-(5-{2-[(3R,5S)-3,5-Dimethylmorpholine-4-carbonyl]-4-fluorophenoxy}pyrimidin-4-yl)-2,7-diazaspiro[3.5]nonan-7-yl]methyl}oxan-3-yl]sulfamoyl}(2,2,2-trifluoroethyl)amine], the IC50 was < 100 nM.

In the case of `CC(C)NS(=O)(=O)N[C@@H]1CC[C@@H](CN2CCC3(CC2)CN(c2ncncc2Oc2ccc(F)cc2C(=O)N(CC(F)F)C(C)C)C3)OC1` [Example 150, N-(2,2-Difluoroethyl)-5-fluoro-N-isopropyl-2-((4-(7-(((2S,5R)-5-((N-isopropylsulfamoyl)amino)tetrahydro-2H-pyran-2-yl)methyl)-2,7-diazaspiro[3.5]nonan-2-yl)pyrimidin-5-yl)oxy)benzamide], the IC50 was < 100 nM.

Source of the values: patent publication US11919901B2 (Syndax Pharmaceuticals, Inc., priority 2021, dated 2024).
